The source of these data is publication PMC5594551, “Heterogeneous drug penetrance of veliparib and carboplatin measured in triple negative breast tumors” (Breast Cancer Research : BCR, 2017).

Several values for one entry are separate records, joined by “and”; a condition that tells them apart may be missing. Equal values may be shown once.

The nature of data set [1]: Veliparib plasma and tumor PK model (NONMEM) in xenograft mice. The following applies: for Kp: beige SCID (Fox Chase).
Procedure: PK-analyses were performed using nonlinear mixed-effects modeling (NONMEM VII Software, ICON Development Solutions, San Antonio, TX, USA), using the first-order conditional estimation with interaction (FOCEI) method. The model-building procedure was guided by the likelihood ratio test, diagnostic plots and internal model validation techniques, including visual predictive checks and bootstrap analysis. The effect of dose, concentration and cell source on TNBC xenograft tissue concentrations was assessed. The variability between animals was assessed using two components: one consistent difference common to all TNBC xenograft tissue samples from left and right mouse tumor and one mouse-specific difference (RRES) to understand the inter-individual and intra-individual variability.
Intra-animal error tumor 28% 21% 19%
proportional residual error plasma 13% 42% 8%
proportional residual error tumor 23% 19% 7%
proportional residual error plasma 41% 22% 9%
A further data set has as its system HCC70. The following applies: ref [23]; cited from earlier work.
The test system of a further data set is PARP. The following applies: read-out: PARP trapping IC50; cited from earlier work.
On the set-up of data set [2]: method as in PMID 19364967. The following applies: ref [46]; cited from earlier work.
On the set-up of data set [3]: method as in PMID 19526240. The following applies: ref [32]; cited from earlier work.
Another data set concerns MDA-MB-436. The following applies: MDA-MB-436, BRCA1-mutated; ref [23], [25]; cited from earlier work.
A short description of data set [4]: Carboplatin quantified by LC-MS in mouse plasma and TNBC xenograft tissue. The class given is in vivo, beige SCID mice. The method, then:
Forty-one beige DF mice with severe combined immunodeficiency (SCID) (Fox Chase, strain R035948:1) were implanted with 10^6 MDA-MB-231 (N = 10), HCC70 N = 21) or MDA-MB-436 (N = 10) TNBC cells obtained from the ATCC bilaterally in the mammary fat pads (Fig. 1). When the TNBC xenograft tissue size exceeded 200 mm^3, the mice were randomized across the treatment cohorts. Animals were randomized into veliparib low dose (20 mg/kg), veliparib high dose (60 mg/kg) or placebo + C, introduced via oral gavage three times daily for 3 days (all but the two DCE-MRI study mice). Carboplatin at 60 mg/kg was administered intravenously on day 1 and day 2. […]
Thirty-nine mice were euthanized approximately 3 h after the last dose of veliparib and 24 h after the last dose of carboplatin; two mice used in the DCE-MRI pilot were euthanized 1.5 h after single-dose administration of veliparib and carboplatin (Fig. 1). […] A separate fresh-frozen portion of each tissue per animal was ground for quantification of veliparib and carboplatin by LC-MS. […]
Plasma samples (50 μl ) were prepared using protein precipitation with acetonitrile. […] Volume and weight of the pulverized tumor was determined. […]
Veliparib/carboplatin quantification: […]
Concentration of veliparib in tissues were calculated in mg/g and transferred to mg/L by estimating the average density of the livers, muscles and tumors. […]

The subject of the next data set is nuclear DNA. Put plainly: Platinum adducts (covalent nuclear DNA-binding) by ICP-MS in TNBC xenograft tumor sections. The class given is in vivo, beige SCID mice. Here is the method: Thirty-nine mice were euthanized approximately 3 h after the last dose of veliparib and 24 h after the last dose of carboplatin; two mice used in the DCE-MRI pilot were euthanized 1.5 h after single-dose administration of veliparib and carboplatin (Fig. 1). Bilateral xenograft tumors and liver and muscle (quadriceps) tissues were harvested. Tissues were cut into three pieces and either embedded in optimum cutting temperature (OCT) formulation or were directly snap frozen in liquid-nitrogen-cooled isopentane and stored at − 80 °C until analysis. […] A separate fresh-frozen portion of each tissue per animal was ground for quantification of veliparib and carboplatin by LC-MS. Method development and details of the techniques are described in Additional file 1a-c. […]
b). Technical aspects of the ICP-MS method development. […]
DNA extraction procedure:
The DNA extraction was based on previous publications. 4 In short, 44 μL 1 mol L −1 NH4HCO3, 20 μL 20% (w/v) SDS, and 6 μL 1% (w/v) proteinase K solution were added successively, and incubated for 24hours using a thermomixer. After the digestion was complete, 146 μL saturated 6 mol L−1 NaCl was added to each tube and the tubes were shaken vigorously to precipitate proteins. The tubes were centrifuged for 10min at 2000 g and the supernatant containing the DNA was transferred to another tube. Subsequently, the supernatant was shaken, centrifuged, and transferred to another tube. Following this, 1.5ml absolute ethanol was added to precipitate the DNA and centrifuged from 30 minutes at 21 Kg at 4°C. The DNA was washed twice with 75% ethanol and was subsequently dissolved in 30 μL water. DNA concentrations were analyzed by measuring the absorbance at 260 nm using Nanodrop 1000 spectophotometer (NanoDrop).
Carboplatin adduct quantification:
The quantity of the carboplatin-adducts per mg DNA was quantified (Figure S8) using a previously validated […]
Figure S8: Example graph of mass spectrum of platinum in DNA extraction by ICP-MS.

Broadly, the Kp is tissue or fluid exposure divided by exposure in the circulation. The Km is the concentration of substrate that gives half-maximal velocity. The IC50 is the concentration that gives 50% inhibition. Take `C[C@]1(c2nc3c(C(N)=O)cccc3[nH]2)CCCN1` [veliparib]: in data set [1] (mouse, tumor (HCC70 xenograft), oral, Penetration from plasma to xenograft tumor (ratio, RPT), HCC70 xenografts), the Kp is 0.75. Moreover, in data set [1] (mouse, tumor (MDA-MB-231 xenograft), oral, Penetration from plasma to xenograft tumor (ratio, RPT), MDA-MB-231 xenografts), the Kp amounted to 0.36. The Kp in data set [1] (mouse, tumor (MDA-MB-436 xenograft), oral, Penetration from plasma to xenograft tumor (ratio, RPT), MDA-MB-436 xenografts) came to 0.46. Also, the Kp in data set [1] (mouse, tumor (TNBC xenografts), oral, Veliparib transferred from plasma to TNBC xenografts, across the three xenograft types) is 0.35 to 0.74. Moreover, the Km in data set [1] (beige SCID, mouse, plasma, oral) amounted to 26.2 µg/mL. Moreover, in data set [1] (mouse PK model), the “Interindividual variability on F plasma” value came out at 13%, the “Interindividual variability on tumor penetration (between tumors in different animals)” value amounted to 37%, the “Intra-animal variability tumor (within the tumor sections of an animal)” value is on record as 28% and the Q tumor stood at 0.0694 mL/h. Moreover, in data set [1] (mouse plasma PK model), the V worked out at 10.1 mL, the V2 amounted to 0.0168 mL and the Vmax was 1.86 mL/h. Further, in data set [1] (mouse plasma PK model, oral gavage), the KA is 2.11 h⁻¹. Further, the “KPT, rate of transfer from plasma to tumor” value in data set [1] (mouse tumor PK model) was 900 mL/h. Besides, the Sensitivity in vitro entry with HCC70 is “insensitive”. For the same molecule, the IC50 in the data set with PARP was 57.4 µM. Besides, the “Renal clearance as share of elimination” value in data set [2] was 70%. Besides, the “Protein binding capacity in human plasma” value in data set [3] was 51%. Also, the Sensitivity in vitro entry in the data set with MDA-MB-436 is listed as “sensitivity”.
For `N.N.O=C([O-])C1(C(=O)[O-])CCC1.[Pt+2]` [carboplatin], the “Carboplatin in TNBC xenograft tissues” value in data set [4] (24 h after administration, MALDI-MSI and LC-MS) was “undetectable”. Besides, in data set [4] (plasma, 0.6 h after carboplatin 60 mg/kg intravenously, LC-MS), the “Median conc. (RSE %)” value is 24 mg/L and 24 (20) mg/L. The “Median conc. (RSE %), carboplatin adducts” value is 1.85 μmol/g DNA in the data set on nuclear DNA (HCC70 xenografts); 1.85 (42%) μmol/g DNA with nuclear DNA (HCC70 xenografts, listed as Carboplatin); 0.55 μmol/g DNA with nuclear DNA (MDA-MB-231 xenografts); 0.55 (23%) μmol/g DNA in the data set on nuclear DNA (MDA-MB-231 xenografts, listed as Carboplatin); 0.54 μmol/g DNA in the data set on nuclear DNA (MDA-MB-436 xenografts); 0.54 (27%) μmol/g DNA in the data set on nuclear DNA (MDA-MB-436 xenografts, listed as Carboplatin). The “Median conc. (RSE %), carboplatin adducts” value is recorded as 0.55 (30%) μmol/g DNA in the data set on nuclear DNA (all TNBC xenograft tissue, 24 h after two carboplatin administrations, ICP-MS); 0.476 (57) μmol/g DNA with nuclear DNA (carboplatin combined with placebo); 0.977 (33) μmol/g DNA with nuclear DNA (carboplatin combined with veliparib 60mg/kg for 3 days). For the same molecule, in the data set with nuclear DNA (xenograft tumor sections), the Median platinum adducts stood at 546.3 nmol/g DNA.
